# Target: T1, human NPY Y5 receptor (Homo sapiens, UniProt Q15761)
# T1 construct: expressed in transfected cells; host or cells: COS-7, CHO and LM(tk-) cells; vectors pcDNA3, pRc/RSV, pCI-neo; membrane preparation
# T1 sequence (Q15761 1-445): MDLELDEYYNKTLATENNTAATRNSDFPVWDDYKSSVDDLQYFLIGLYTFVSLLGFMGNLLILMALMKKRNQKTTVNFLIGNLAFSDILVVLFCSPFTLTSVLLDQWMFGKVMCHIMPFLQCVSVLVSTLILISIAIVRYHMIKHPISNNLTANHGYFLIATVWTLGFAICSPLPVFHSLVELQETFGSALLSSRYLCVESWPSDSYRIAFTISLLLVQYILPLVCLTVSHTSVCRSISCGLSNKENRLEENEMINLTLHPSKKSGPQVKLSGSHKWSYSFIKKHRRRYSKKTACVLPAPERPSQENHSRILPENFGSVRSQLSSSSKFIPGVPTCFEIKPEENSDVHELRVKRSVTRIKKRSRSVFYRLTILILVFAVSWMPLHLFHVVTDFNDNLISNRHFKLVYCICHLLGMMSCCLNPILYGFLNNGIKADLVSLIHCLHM
# Assay: NPY binding inhibition test
# Conditions: [125I]peptideYY binding to membrane sample from cells expressing NPY Y5 receptor, 25° C., 2 hours; read-out: NPY receptors binding inhibition IC50
# Text: Pharmacological Test (NPY Binding Inhibition Test)
# A sequence coding for human NPY Y5 receptor (c.f. International patent publication number W096/16542) was cloned into expression vectors pcDNA3, pRc/RSV (made by Invitrogen Inc.) and pCI-neo (made by Promega Inc.). The expression vectors thus obtained were transfected to host cells COS-7, CHO and LM(tk-) (American Type Culture Collection) by cationic lipid method (Proceedings of the National Academy of Sciences of the United States of America, vol. 84: p. 7413(1987)) to give NPY Y5 receptor expression cells.
# A membrane sample prepared from the cells which expressed NPY Y5 receptor was incubated together with a test compound and [^125I]peptideYY (made by NEN) (20,000 cpm) in an assay buffer (25 mM Tris buffer, pH 7.4, containing 10 mM magnesium chloride, 1 mM phenylmethylsulfonyl fluoride, 0.1% bacitracin and 0.5% bovine serum albumin) at 25° C. for 2 hours, then filtered through a glass filter GF/C and washed with 5 mM Tris buffer (pH7.4) containing 0.3% BSA. The radioactivity of the cake on the glass filter was measured. Non-specific binding was measured in the presence of 1 μM peptide YY, and 50% Inhibitory Concentration (IC50) of the test compound against specific peptideYY binding was determined (Endocrinology, vol. 131: p. 2090(1992)).
row,SMILES,IC50
1,"O=C1OC2(CCC(C(=O)NC3CCC(c4ccccc4)CC3)CC2)c2ccccc21 (stereo not drawn) [Example 1, trans-3′-oxo-N-(trans-4-phenylcyclohexyl)-spiro[cyclohexane-1,1′(3′H)-isobenzofuran]-4-carboxamide]",2.5 nM
2,"O=C1OC2(CCC(C(=O)NC3CCN(c4ccccc4F)CC3)CC2)c2ccccc21 (stereo not drawn) [Example 5, Trans-N-[1-(2-fluorophenyl)-4-piperidyl]-3′-oxo-spiro[cyclohexane-1,1′(3′H)-isobenzofuran]-4-carboxamide]",1.7 nM
3,"O=C1OC2(CCC(C(=O)NC3CCC(c4cccc(F)c4)CC3)CC2)c2ncccc21 (stereo not drawn) [Example 27, Trans-N-[trans-4-(3-fluorophenyl)cyclohexyl]-3-oxospiro[7-azaisobenzofuran-1(3H),1′-cyclohexane]-4′-carboxamide]",3.6 nM
4,"CS(=O)(=O)N1CC2(CCC(C(=O)NC3CCN(c4cccc(F)c4)CC3)CC2)c2ccccc21 (stereo not drawn) [Example 36, Trans-N-[1-(3-fluorophenyl)-4-piperidyl]-1-methanesulfonyl-spiro[indoline-3,1′-cyclohexane]-4′-carboxamide]",0.8 nM
5,"CS(=O)(=O)N1CC2(CCC(C(=O)NC3CCN(c4ccccc4)C3)CC2)c2ccccc21 [Example 41, Trans-1-methanesulfonyl-N-[(3S)-1-phenyl-3-pyrrolidinyl]spiro[indoline-3,1′-cyclohexane]-4′-carboxamide]",1.2 nM

# The remaining lines, values ahead:
row,IC50,SMILES
1,1.7 nM,O=C1OC2(CCC(C(=O)NC(CNCc3ccccc3)Cc3ccccc3)CC2)c2ccccc21 (centres unmarked) [Example 32]
2,0.69 nM,"CS(=O)(=O)N1CC2(CCC(C(=O)NC(CNCc3ccccc3)Cc3ccccc3)CC2)c2ccccc21 [Example 45, Trans-N-[(S)-1-benzyl-2-(benzylamino)ethyl]-1-methylsulfonylspiro[indoline-3,1′-cyclohexane]-4′-carboxamide]"
3,2 nM,"CS(=O)(=O)N1CC2(CCC(C(=O)NC(Cc3ccncc3)C(=O)NCc3ccccc3)CC2)c2ccccc21 (stereo not drawn) [Example 46, Trans-N-[1-benzylcarbamoyl-2-(4-pyridyl)ethyl]-1-methylsulfonylspiro[indoline-3,1′-cyclohexane]-4′-carboxamide]"

# — patent US7205417B2, “Spiro compounds” (Banyu Pharmaceutical Co., Ltd., priority 2001, dated 2007)
